Measurements as given in patent US4061760A, “Method for using 3-substituted-5-phenyl-5-pyridyl hydantoins as antiarrhythmic agents” (priority 1976, dated 1977).

Experiments:
[1] = cited from earlier work; for side effects / toxicity (in words): background
[2] = system: ventricular rate and rhythm; experiment: animal or person; format: in vivo; details: for ED50: Mus musculus, ip, 10 min, read-out: ED50 (95% CL)
Description: (§1) The test compounds were administered in varying intraperitoneal doses to groups consisting of 5 mice. Ten minutes after administration of a given dose of a compound, a mouse was transferred to a covered 300 ml glass beaker that contained a wad of cotton saturated with about 20 ml of chloroform. The animal was observed closely and removed from the beaker immediately after respiratory arrest. The heart was quickly exposed by making an incision through the abdomen, diaphragm, thorax and pericardium for visual inspection of ventricular rate and rhythm. Ventricular contractions were counted for 30 seconds. According to the procedure reported by Lawson, animals with ventricular rate not exceeding 100 contractions during the 30 second observation period were considered protected.

[3] = in vivo; format: in vivo; details: mouse, in vivo, ip; LD50 and ED50 in mg/kg, i.p.; read-out: Therapeutic index
Description: as §1

[4] = in vivo; details: ip
Source text: LD50 data were obtained by standard procedures known to the art.

[5] = Casagrande, quoted; cited from earlier work

Row | Structure (SMILES) | ED50 [2] [mg/kg] | selectivity ratio [3] | LD50 [4] [mg/kg] | other results
1 | O=C1NC(=O)C(c2ccccc2)(c2ccccc2)N1 [DPH, 5,5-diphenyl-2,4-imidazolidinedione] | – | – | – | side effects / toxicity (in words) [1]: dizziness, nausea, emesis, nystimus, and ataxia; side effects at large doses (in words) ([1]; large doses): atrio-ventricular blockage, bradycardia, or even cardiac arrest
2 | O=C1NC(c2ccccc2)(c2ccccn2)C(=O)N1CCCN1CCC(c2ccccc2)CC1 (stereo not shown) [Example 1, 3-[3-(4-phenyl-1-piperidyl)propyl]-5-phenyl-5-(2-pyridyl)hydantoin] | 15.3 | 9 | 136 | –
3 | O=C1NC(c2ccccc2)(c2ccccn2)C(=O)N1CCCN1CCC(O)(c2ccccc2)CC1 (stereo not shown) [Example 2, 3-[3-(4-hydroxy-4-phenyl-1-piperidyl)propyl]-5-phenyl-5-(2-pyridyl)hydantoin] | 19.2 | 3.4 | 65 | –
4 | O=C1NC(c2ccccc2)(c2cccnc2)C(=O)N1CCCN1CCC(c2ccccc2)CC1 (stereo not shown) [Example 4, 3-[3-(4-phenyl-1-piperidyl)propyl]-5-phenyl-5-(3-pyridyl)-hydantoin] | 31 | 5 | 156 | –
5 | O=C1NC(c2ccccc2)(c2ccncc2)C(=O)N1CCCN1CCC(c2ccccc2)CC1 (stereo not shown) [Example 5, 3-[3-(4-phenyl-1-piperidyl)propyl]-5-phenyl-5-(4-pyridyl)hydantoin] | 28 | 2.1 | 61 | –
6 | C=C[C@H]1C[N@@]2CC[C@H]1C[C@@H]2[C@@H](O)c1ccnc2ccc(OC)cc12 [I, quinidine] | – | – | – | side effects / toxicity (in words) [1]: relatively toxic
7 | O=C1NC(=O)C(c2ccccc2)(c2ccccn2)N1 (stereo not shown) [V, 5-phenyl-5-(2-pyridyl)hydantoin] | 160 | 1.16 | 186 | –
8 | O=C1NC(=O)C(c2ccccc2)(c2cccnc2)N1 (stereo not shown) [VI, 5-phenyl-5-(3-pyridyl)hydantoin] | > 310 | – | – | mice protected ([2]; at 310 mg/kg, i.p.): 2 of 5
9 | O=C1NC(=O)C(c2ccccc2)(c2ccncc2)N1 (stereo not shown) [VII, 5-phenyl-5-(4-pyridyl)hydantoin] | 205 | 1.17 | 240 | –
10 | CN(C)CCN1C(=O)NC(c2ccccc2)(c2cccnc2)C1=O (stereo not drawn) [compound XXV, 3-(2-dimethylamino-ethyl)-5-phenyl-5β-pyridyl-hydantoin] | – | – | – | therapeutic index clearly superior to that of quinidine (in words) [5]: had not been fulfilled
11 | CC(CN(C)C)CN1C(=O)NC(c2ccccc2)(c2cccnc2)C1=O (stereo not drawn) [compound XXX, 3-(2-methyl-3-dimethylamino-propyl)-5-phenyl-5β-pyridyl-hydantoin] | – | – | – | therapeutic index clearly superior to that of quinidine (in words) [5]: had not been fulfilled
